Literature values as cited in patent US20230083525A1, “NOVEL COMPOSITION FOR REDUCING STRESS DISORDERS” (SOCIETE DES PRODUITS NESTLE S.A., priority 2019, published 2023).

Details: value used to convert plasma AUC to production in the colon

Compound | systemic availability
CC(=O)O [acetate] | 36%
CCCC(=O)O [butyrate] | 2%
